US20060084704A1, “Methods and compositions for enhancing degradation of nuclear receptor transcription factors and uses thereof” (priority 2004, published 2006)

Key:
[1] = target: T1, mutant Q49 androgen receptor (Homo sapiens, UniProt P10275, INS80QQQQQQQQQQQQQQQQQQQQQQQQQQ); test: Mutant androgen receptor inclusions in COS-1 cells transfected with GFPARQ49 (fluorescence microscopy); assay type: cell-based; settings: COS-1 cells transfected with GFPARQ49, JC9 5 micromolar
T1 construct: GFP; expressed in transfected cells; host or cells: COS-1 (monkey kidney)
Procedure: Monkey kidney COS-1 cells were plated at a density of 3×10^4 cells per 0.5-milliliter volume onto alcohol-cleaned and sterilized cover slips placed in 35-millimeter suspension culture dishes containing Dulbecco's modified Eagle's (DME) medium containing 10% FBS. The cells were transfected with plasmids containing either the Q19 (plasmid GFPARQ19) or Q49 (plasmid GFPARQ49) mutant androgen receptor and green fluorescent protein (GFP) as a reporter. For each coverslip, 12.3 microliters SuperFect was added to 3.075 micrograms plasmid in 102.5 microliters DME medium (to give a 1:4 ratio of DNA to SuperFect reagent); the mixture was vortexed briefly, and the complex allowed to form over 15 minutes. Each mixture then received 897 microliters CD/DME and was mixed gently. The resulting 1-milliliter volumes were added to the dishes containing the coverslips (final plasmid concentration was 3.02 micrograms per dish). Cells were allowed to incubate with the transfection solution for 5 hours, then the medium was changed to fresh 1.5 milliliters CD/DME medium with either vehicle (DMSO) only added or JC9 (final concentration 5 micromolar). […] The coverslips were air-dried, mounted on slides with a glycerol-based mounting agent, and stored at 4 degrees Celsius if necessary prior to observation with fluorescence microscopy. […]

androgen receptor (AR) = target: T2, androgen receptor (AR) (Homo sapiens, UniProt P10275, T878A); test: Western blot of LNCaP cell lysates, AR; assay type: cell-based; settings: 1 or 2 micromolar, 24 hours, presence or absence of DHT
T2 construct: LNCaP cells express an endogenous mutant AR that is found in prostate cancer patients; host or cells: LNCaP
T2 sequence (P10275 1-920 T878A): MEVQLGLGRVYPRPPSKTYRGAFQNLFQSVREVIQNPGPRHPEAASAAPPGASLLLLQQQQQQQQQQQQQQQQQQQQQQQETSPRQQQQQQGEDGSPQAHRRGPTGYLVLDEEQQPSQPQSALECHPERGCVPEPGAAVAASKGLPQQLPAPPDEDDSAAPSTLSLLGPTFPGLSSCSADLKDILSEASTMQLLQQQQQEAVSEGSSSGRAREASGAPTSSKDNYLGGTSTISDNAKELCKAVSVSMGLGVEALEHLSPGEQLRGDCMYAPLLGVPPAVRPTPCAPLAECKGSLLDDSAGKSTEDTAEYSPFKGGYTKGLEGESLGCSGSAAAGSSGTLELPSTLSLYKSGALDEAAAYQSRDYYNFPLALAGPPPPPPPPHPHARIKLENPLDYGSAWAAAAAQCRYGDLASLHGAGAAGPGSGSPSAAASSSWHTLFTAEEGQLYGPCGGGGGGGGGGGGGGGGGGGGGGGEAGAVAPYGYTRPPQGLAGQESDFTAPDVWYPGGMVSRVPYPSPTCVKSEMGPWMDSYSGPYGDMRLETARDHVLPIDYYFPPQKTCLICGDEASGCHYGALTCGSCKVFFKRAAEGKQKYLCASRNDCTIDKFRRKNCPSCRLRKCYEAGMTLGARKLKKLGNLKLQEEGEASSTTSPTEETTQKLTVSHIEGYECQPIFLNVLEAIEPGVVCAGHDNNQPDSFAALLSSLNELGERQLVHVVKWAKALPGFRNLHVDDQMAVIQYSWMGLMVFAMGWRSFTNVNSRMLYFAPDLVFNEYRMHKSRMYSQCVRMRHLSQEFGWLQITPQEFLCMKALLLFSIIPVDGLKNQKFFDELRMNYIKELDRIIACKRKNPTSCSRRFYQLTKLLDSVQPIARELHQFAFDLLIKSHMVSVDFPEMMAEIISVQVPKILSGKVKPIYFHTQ
Procedure: (§1) Human prostate cancer LNCaP cells and T47D cells were plated at a density of 7×10^5 cells per 60 millimeter tissue culture dish in […] (RPMI) medium containing 10% FBS. The medium was changed to RPMI or DME medium containing 10% charcoal-stripped serum 24 hours later to deplete cellular androgens or estrogens. After another 24 hours, treatment with the test compounds began. The test dose of JC15 was 1 or 2 micromolar and the test does of JC9 was 1, 5 and 10 micromolar. LNCap cells also received dihydrotestosterone (DHT) (3 nanomolar). Control cells received a corresponding amount of the vehicle, dimethylsulfoxide (DMSO) (<0.04%) for an equivalent exposure time. Cells were incubated with JC15 for 24 or 48 hours, and were lysed in 250 microliters of 1×SDS/PAGE loading buffer. Approximately 40 micrograms of total cellular protein was loaded in each lane of a pre-cast gel (NuPAGE, Invitrogen). Protein separation and transfer were performed following the manufacturer's instructions.
(§2) For the prostate cell lysates, androgen receptor (AR) protein was visualized by incubating the resultant membranes with an anti-AR antibody (BD-PharMingen), followed by chemiluminescence detection (ECL Plus, Amersham). […] The resultant protein signals were quantified using densitometry and NIH ImageJ software.

hsp70 = test: Western blot of LNCaP cell lysates, hsp70; assay type: cell-based, human; settings: 1 or 2 micromolar, 24 hours, presence or absence of DHT
Procedure: as §1, §2

T1 sequence (P10275 with tags, fused parts or gaps with the stated changes): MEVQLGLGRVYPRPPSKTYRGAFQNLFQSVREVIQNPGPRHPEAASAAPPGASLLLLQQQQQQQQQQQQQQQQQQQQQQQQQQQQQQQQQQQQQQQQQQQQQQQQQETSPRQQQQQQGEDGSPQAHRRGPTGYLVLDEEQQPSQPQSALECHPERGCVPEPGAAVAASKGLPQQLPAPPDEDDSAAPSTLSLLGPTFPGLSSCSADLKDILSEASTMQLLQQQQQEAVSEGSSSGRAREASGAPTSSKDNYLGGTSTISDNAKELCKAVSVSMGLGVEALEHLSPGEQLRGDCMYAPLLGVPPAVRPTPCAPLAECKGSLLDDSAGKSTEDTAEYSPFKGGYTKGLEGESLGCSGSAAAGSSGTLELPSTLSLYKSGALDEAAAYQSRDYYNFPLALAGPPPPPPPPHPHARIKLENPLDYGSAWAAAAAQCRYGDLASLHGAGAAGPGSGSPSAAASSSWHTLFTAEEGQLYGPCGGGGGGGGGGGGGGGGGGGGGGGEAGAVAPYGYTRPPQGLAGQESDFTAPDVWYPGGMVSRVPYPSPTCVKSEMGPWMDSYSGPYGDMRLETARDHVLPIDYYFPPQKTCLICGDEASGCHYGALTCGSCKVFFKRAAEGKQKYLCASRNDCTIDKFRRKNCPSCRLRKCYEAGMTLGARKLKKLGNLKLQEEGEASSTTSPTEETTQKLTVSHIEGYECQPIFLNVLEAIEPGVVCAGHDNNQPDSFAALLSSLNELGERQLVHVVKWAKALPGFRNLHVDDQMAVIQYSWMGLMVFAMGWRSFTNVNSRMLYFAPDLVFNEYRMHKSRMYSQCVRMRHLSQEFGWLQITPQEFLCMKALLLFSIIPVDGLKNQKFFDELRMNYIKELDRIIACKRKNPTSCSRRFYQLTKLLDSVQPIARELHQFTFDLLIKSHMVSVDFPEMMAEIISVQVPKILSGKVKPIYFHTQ

| Structure (SMILES) | fluorescent inclusions or aggregates of mutant Q49 androgen receptor [1] | cellular concentration of AR (androgen receptor (AR)) | cellular concentration of hsp70 (hsp70) |
| --- | --- | --- | --- |
| COc1ccc(C=CC(=O)C=C(O)C=Cc2ccc(OC)c(OC)c2)cc1OC [JC9, 5-hydroxy-1,7-bis(3,4-dimethoxyphenyl)-1,4,6-heptatrien-3-one] | substantially smaller amounts of fluorescent inclusions |  |  |
| CCOC(=O)CCC(C(=O)C=Cc1ccc(O)c(OC)c1)C(=O)C=Cc1ccc(O)c(OC)c1 (stereo not drawn) [JC15, 7-(4-hydroxy-3-methoxyphenyl)-4-[3-(4-hydroxy-3-methoxyphenyl)acryloyl]-5-oxo-hept-6-enoic acid ethyl ester] |  | decreased | did not substantially affect |
